The text below walks through data of publication PMC7027018 (BMC Chemistry, 2020).

Assay [1] deals with T1, hMAO-A (Homo sapiens, UniProt P21397).
T1 construct: purchased Sigma-Aldrich; host or cells: insect cells (BTI-TN-5B14), recombinant baculovirus
T1 sequence (P21397 1-527): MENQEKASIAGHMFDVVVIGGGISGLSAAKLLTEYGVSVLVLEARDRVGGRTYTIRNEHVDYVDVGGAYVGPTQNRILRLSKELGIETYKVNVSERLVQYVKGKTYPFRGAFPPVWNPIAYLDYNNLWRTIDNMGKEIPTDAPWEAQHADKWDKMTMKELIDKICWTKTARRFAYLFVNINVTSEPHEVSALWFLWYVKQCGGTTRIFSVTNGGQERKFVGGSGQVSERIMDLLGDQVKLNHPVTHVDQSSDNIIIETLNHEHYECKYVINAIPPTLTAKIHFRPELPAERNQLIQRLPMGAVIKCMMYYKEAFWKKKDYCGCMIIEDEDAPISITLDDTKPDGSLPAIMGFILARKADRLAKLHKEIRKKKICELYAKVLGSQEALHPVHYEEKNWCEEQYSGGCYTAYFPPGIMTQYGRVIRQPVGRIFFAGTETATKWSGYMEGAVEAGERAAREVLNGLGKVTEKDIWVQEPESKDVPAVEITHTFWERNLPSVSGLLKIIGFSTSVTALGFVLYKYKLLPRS
The assay can be described thus: hMAO-A inhibitory activity, Amplex Red continuous fluorometric assay. The assay is classed as biochemical. Conditions: recombinant hMAO-A, p-tyramine substrate, mean SEM. As to the method: (§1) The synthesized derivatives were screened for the hMAO-A and hMAO-B inhibitory activities by using an extremely sensitive continuous fluorometric assay containing Amplex Red (10-acetyl-3, 7-dihydroxyphenoxazine) reagent. The enzymatic H2O2 was measured with and without extracts or standards.
(§2) Unless otherwise noted, the analytical grade chemicals required for synthesis and antioxidant activity procured from Sigma Aldrich, Merck, Hi-media Laboratories. The analytical assessment of the synthesized derivatives for hMAO inhibition was measured by their effects on the generation of hydrogen peroxide (H2O2) by p-tyramine (a general substrate for both MAO isoforms), utilizing the Amplex Red MAO assay kit (Sigma USA) and microsomal MAO enzymes extracted by insect cells (BTI-TN-5B14) expressed on recombinant baculovirus containing cDNA probes for MAO isoforms (Sigma-Aldrich USA) were used as source for the two microsomal MAO isoforms. The progress of the reaction was cheeked through thin layer chromatography TLC executed on 0.25 mm pre-coated plates with silica gel procured from Merck, and the spots were envisaged in iodine chamber and UV cabinet, in mobile media TLC-hexane:toluene:ethyl acetate (1:1:1). Melting points were recorded on Sonar melting point apparatus in open capillary tubes. The nuclear magnetic resonance (NMR) spectra 1H NMR and ^13C NMR spectra were determined in DMSO and deuterated CDCl3 respectively on a spectrometer (Model: Bruker Avance II 400 NMR). Coupling constants J are in hertz (Hz) (Additional file 1). Spectral data for infrared (IR) was confirmed on Perkin Elmer FTIR spectrophotometer by using KBr pellets technique.
(§3) Human MAO-A and -B recombinant enzymes (Sigma-Aldrich) 5 mg ml^−1 were pre-aliquoted and placed at − 70 °C. The interactions of the titled compounds with hMAO isoforms were evaluated through a fluorimetric method based on the H2O2 formation rendered by MAO isoforms was identified by utilizing the non-fluorescent, extremely susceptible and stable probe Amplex®-Red reagent (10-acetyl-3,7-dihydroxyphenoxazine), which reacts with H2O2 in the existence of horseradish peroxidase to generate resorufin which is a fluorescent component. […] By the incubation time, the reaction was initiated via the addition of 200 μM Amplex Red reagent, 1 mM p-tyramine (general substrate for both MAO isoforms) and 1 U ml^−1 horseradish peroxidase (HRP). […] The calculation of specific fluorescence emission (used to obtain the final results) was carried out by subtraction of background action that was identified by the cuvettes comprising all reagents except the MAO isoforms, which were changed by a sodium phosphate buffer solution. The preparation of stock solutions and all reagents was done newly each day in deionized water and kept at − 20 °C. Data were processed in Microsoft Excel, to calculate IC50 values.
(§4) The enzymatic kinetic factors maximum reaction rate (Vmax) and Michaelis–Menten constant (Km) were computed by GraphPad Prism Software 6.02 (San Diego, CA, USA). The IC50 values were determined by nonlinear regression best fit model of normalized response with variable slope. Lineweaver–Burk plot was obtained from Michaelis–Menten data. The Michaelis–Menten constant (Km) is the concentration of […]. Relative selectivity (RS) folds were defined by the ratio of hMAO-A IC50 to hMAO-B IC50. The inhibition mechanism was identified by the double reciprocal plot (Lineweaver–Burk curves) by plotting the inverse of the substrate concentration (1/S) as a function against the inverse of initial velocity (1/V).

Another assay concerns the target T2, hMAO-B (Homo sapiens, UniProt P27338).
T2 construct: purchased Sigma-Aldrich; host or cells: insect cells (BTI-TN-5B14), recombinant baculovirus
T2 sequence (P27338 1-520): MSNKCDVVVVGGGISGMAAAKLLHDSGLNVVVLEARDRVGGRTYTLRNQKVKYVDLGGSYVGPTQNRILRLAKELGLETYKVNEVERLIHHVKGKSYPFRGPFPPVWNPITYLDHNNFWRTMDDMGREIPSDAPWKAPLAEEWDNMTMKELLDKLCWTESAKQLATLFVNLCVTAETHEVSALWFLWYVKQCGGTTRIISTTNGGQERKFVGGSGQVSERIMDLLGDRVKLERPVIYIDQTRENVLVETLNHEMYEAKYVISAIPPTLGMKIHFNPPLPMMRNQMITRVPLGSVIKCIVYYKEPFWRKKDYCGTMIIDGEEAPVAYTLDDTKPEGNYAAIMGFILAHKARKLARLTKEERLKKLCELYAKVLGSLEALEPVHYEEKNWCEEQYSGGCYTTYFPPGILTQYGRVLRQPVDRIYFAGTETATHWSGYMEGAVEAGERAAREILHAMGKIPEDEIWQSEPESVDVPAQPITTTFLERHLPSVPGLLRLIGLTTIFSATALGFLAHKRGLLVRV
The experiment in a line: hMAO-B inhibitory activity, Amplex Red continuous fluorometric assay. The assay is classed as biochemical. Conditions: for Selectivity index: IC50 (MAO-A)/IC50 (MAO-B); for IC50: recombinant hMAO-B, p-tyramine substrate, Amplex Red, mean SEM. As to the method: as §1, §2, §3, §4

A short description of assay [2]: DPPH radicals scavenging activity. Conditions: absorbance at 517 nm, 30 min at 37 °C; mean ± SEM, n = 3. An excerpt:
Besides their inhibitory action on hMAO the antioxidant potential of synthesized compounds was investigated using 1,1-Diphenyl-2-picrylhydrazyl (DPPH) assay. DPPH was utilized as a stable free radical because free radicals simulate reactive nitrogen and oxygen species distressing neurological structure.
The DPPH method is one of the most proficient techniques to assess the radical-scavenging action by a chain-breaking mechanism. […] DPPH is stable free radical on room temperature, however on acceptance of a hydrogen/electron radical it turns into a stable diamagnetic molecule. The scavenging activity of DPPH radical is assessed by the reduction in its optical density at 5l7 nm, rendered by antioxidants. This phenomenal feature of DPPH is due to the reaction among antioxidant compounds and radicals, leads to the scavenging of the free radical via donated hydrogen. It manifested visually as the color bleaches from purple to yellow. Therefore, DPPH is generally utilized as a substrate to estimate the ant oxidative potential. Different concentrations of around […] (25, 50, 75, and 100) µg ml^−1 of the titled derivatives were suspended in methanol and mixed with 5 ml of a 0.004% methanol solution of DPPH. Subsequently the all dilutions were subjected to incubation for 30 min at 37 °C temperature; finally, at 517 nm the absorbance was measured against a blank. Ascorbic acid was utilized as a reference while and all the experiments were performed in triplicate. […] DPPH free radical scavenging of compounds was calculated as scavenging activity for DPPH (%) = [(Ac − At)/Ac] × 100 Where Ac is the absorbance of the control reaction At is the absorbance of the test compound. The absorbance was measured with UV/Vis Epoch ELISA reader at 517 nm, and antioxidant activity was measured as a decrease in absorbance of DPPH·.
On the technique in general: DPPH is a stable violet radical that fades when it is reduced.

Assay [3] can be described thus: Hydrogen peroxide scavenging (H2O2) assay. Conditions: absorption at 230 nm, 10 min incubation, phosphate buffer pH 7.4; mean ± SEM, n = 3. As to the method: H2O2 is quickly decomposed into oxygen and water and this could generate hydroxyl radicals (OH) that may commence DNA damage in the body and lipid peroxidation. The hydrogen peroxide inhibitory activity of newly synthesized compounds was assessed by the technique illustrated by Nakano and coworkers with some modifications. In phosphate buffer (40 mM pH 7.4) the solution of hydrogen peroxide (40 mM) was prepared and different concentrations of titled compounds (05–80 μg ml^−1) were added to H2O2 solution (2 ml). The concentration of hydrogen peroxide is determined by absorption at 230 nm using a spectrophotometer after 10 min of incubation. Blank reading was noted of phosphate buffer without H2O2. The percentage of hydrogen peroxide inhibition was anticipated by the formula [(Ab − At)/[…]] × 100, where Ab is the absorbance of the control and At is the absorbance of compounds/standard taken as L-ascorbic acid (05–80 μg ml^−1). UV/Vis Epoch ELISA reader was used to measure as a decrease in absorbance in the 96 wells (Table 5).

For assay [4], the target named is T1, hMAO-A. The assay can be described thus: Kinetic study (Lineweaver-Burk) of hMAO-A inhibition. The format is biochemical. Conditions: Lineweaver-Burk plots, p-tyramine substrate.
Excerpt: The kinetic study by the Lineweaver–Burk plots, carried out to explicates the type of inhibition by compounds 7, 15 shown their significant inhibitory potential towards hMAO-A and hMAO-B, respectively. Reaction mixtures composing of five diverse concentrations of p-tyramine was used as a common substrate in the presence or absence of compounds.
as §4

For orientation: IC50 means the midpoint of a concentration-inhibition curve. `O=C(/C=C/C=C/c1ccc2c(c1)OCO2)Nc1ccc(Br)cc1` [Compound 5]: the IC50 on hMAO-A [1] amounted to 60.19 ± 0.087 µM; on hMAO-B it was 14.19 ± 0.007 µM; in assay [2] it was 5.553 ± 0.007 µM; in assay [3], 8.279 ± 0.017 µM. Moreover, the Selectivity index on hMAO-B worked out at 4.241.

For the compound `O=C(/C=C/C=C/c1ccc2c(c1)OCO2)Nc1cccc2ccccc12` [Compound 7], the IC50 at hMAO-A [1] amounted to 15.38 ± 0.071 µM; on hMAO-B it was 52.2 ± 0.006 µM; in assay [2], 8.815 ± 0.019 µM; in assay [3], 9.495 ± 0.045 µM. Further, at hMAO-B, the Selectivity index is listed as 0.294. In addition, on hMAO-A [4], the “type of hMAO-A inhibition” value is given as “competitive”.

For the compound `O=C(/C=C/C=C/c1ccc2c(c1)OCO2)N1CCOCC1` [Compound 9], the IC50 on hMAO-A [1] was 22.19 ± 0.07 µM; at hMAO-B, 71.01 ± 0.005 µM; in assay [2] it was 12.35 ± 0.021 µM; in assay [3] it was 13.98 ± 0.01 µM.

Consider `CC1CCC(C(C)C)C(OC(=O)/C=C/C=C/c2ccc3c(c2)OCO3)C1` (stereo not drawn) [Compound 11], for which the IC50 on hMAO-A [1] was determined as 33.72 ± 0.071 µM; at hMAO-B it was 20.59 ± 0.006 µM; in assay [2] it was 14.15 ± 0.011 µM; in assay [3], 17.57 ± 0.091 µM. This compound also came in with a Selectivity index at hMAO-B of 1.637.

For the compound `O=C(/C=C/C=C/c1ccc2c(c1)OCO2)Oc1ccc2ccc(=O)oc2c1` [Compound 13], the IC50 turned out to be 24.53 ± 0.002 µM at hMAO-A [1], 65.99 ± 0.002 µM at hMAO-B, 10.7 ± 0.035 µM in assay [2] and 11.35 ± 0.004 µM in assay [3]. The Selectivity index at hMAO-B is 0.371.

Take `Cc1ccc(C(C)C)cc1OC(=O)/C=C/C=C/c1ccc2c(c1)OCO2` [Compound 17a]: the IC50 at hMAO-A [1] turned out to be 32.33 ± 0.043 µM; on hMAO-B, 21.37 ± 0.007 µM; in assay [2], 17.15 ± 0.026 µM; in assay [3], 23.76 ± 0.021 µM. At hMAO-B, the Selectivity index is recorded as 1.512.

With `COc1cc(C=O)ccc1OC(=O)/C=C/C=C/c1ccc2c(c1)OCO2` [Compound 17b], the IC50 is 30 ± 0.005 µM on hMAO-A [1], 17.9 ± 0.038 µM on hMAO-B, 8.281 ± 0.001 µM in assay [2] and 10.09 ± 0.013 µM in assay [3]. Moreover, the Selectivity index at hMAO-B was 1.675.

Consider `C=CCc1ccc(OC(=O)/C=C/C=C/c2ccc3c(c2)OCO3)c(OC)c1` [Compound 17c], for which the half-maximal inhibitory concentration (IC50) at hMAO-A [1] turned out to be 16.11 ± 0.091 µM; at hMAO-B it was 26.44 ± 0.063 µM; in assay [2], 16.52 ± 0.012 µM; in assay [3] it was 15.71 ± 0.014 µM. Besides, the Selectivity index on hMAO-B is on record as 0.609.

With `O=C(/C=C/C=C/c1ccc2c(c1)OCO2)N1CCCCC1` [Piperine, reference compound], the IC50 on hMAO-A [1] stood at 19.01 ± 0.031 µM; on hMAO-B it was 17.57 ± 0.037 µM; in assay [2] it was 9.814 ± 0.053 µM; in assay [3], 11.33 ± 0.016 µM. This compound yielded a Selectivity index at hMAO-B of 1.081.
